The IC50 is the concentration that inhibits the measured activity by half.

The target in the experiment is T1, HIV-integrase (Human immunodeficiency virus type 1 group M subtype B, UniProt P12497).
T1 construct: Recombinant integrase (0.26 ng) was incubated with the beads
Description: HIV-Integrase Inhibition Activity (SPA strand transfer assay). Particulars: recombinant integrase, SPA beads, P33 labeled target DNA; read-out: Activity (IC50 class, HIV-integrase inhibition). In kind it is biochemical. Here is the method:
HIV-Integrase InhibitionActivity. To evaluate in-vitro activity against HIV-integrase, 5 pmole of biotin labeled substrate DNA was bound to 100 μg of Streptavidin coated PVT SPA beads (Amersham Pharmacia Biotech). Recombinant integrase (0.26 ng) was incubated with the beads for 90 min at 37° C. Unbound enzyme was removed by washing the complex followed by addition of inhibitors and 0.1 fmol of P33 labeled target DNA. The reaction was stopped by adding EDTA to a final concentration of 10 mM. Samples were counted in TopCountNXT (Packard) and the CPM was used as a measure of integration. The reaction condition was as described in A. Engelman and R. Craigie, J. Virol. 69, 5908-5911 (1995). The sequences of substrate and target DNA were described in Nucleic Acid Research 22, 1121-1122 (1994). Activity equal to A refers to a compound having IC50=0.002 to 0.10 μM while B and C denote compounds having IC50=0.1 to 1.0 μM and IC50≧1.0 μM respectively.
On to “Pyrimido[2,1-c][1,4]oxazine-2- carboxamide, 4,6,7,9-tetrahydro-3- hydroxy-9,9-dimethyl-N-[(4- methyl-2-phenyl-5- thiazolyl)methyl]-4-oxo- [Example 74]”, for which the half-maximal inhibitory concentration (IC50) was at least 1000 nM.

Take `CC1(C)OCCn2c1nc(C(=O)NCc1ccc(C(=O)N3CCOCC3)o1)c(O)c2=O` [Example 17, Pyrimido[2,1-c][1,4]oxazine-2-carboxamide, 4,6,7,9-tetrahydro-3-hydroxy-9,9-dimethyl-N-[[5-(4-morpholinylcarbonyl)-2-furanyl]methyl]-4-oxo-]: the 50% inhibitory concentration (IC50) was at least 1000 nM.

For the molecule `CC1(C)OCCn2c1nc(C(=O)NCc1cn3ccccc3n1)c(O)c2=O` [Example 15, Pyrimido[2,1-c][1,4]oxazine-2-carboxamide, 4,6,7,9-tetrahydro-3-hydroxy-N-(imidazo[1,2-a]pyridin-2-ylmethyl)-9,9-dimethyl-4-oxo-], the IC50 lay in the range of 2 to 100 nM.

As to `CC1(C)OCCn2c1nc(C(=O)NCC1Cc3ccccc3O1)c(O)c2=O` (stereo not shown) [Example 76, N-(2,3-dihydro-1-benzofuran-2-ylmethyl)-3-hydroxy-9,9-dimethyl-4-oxo-4,6,7,9-tetrahydropyrimido[2,1-c][1,4]oxazine-2-carboxamide], the half-maximal inhibitory concentration (IC50) was in the range of 2 to 100 nM.

`Cc1nc(C)c(CNC(=O)c2nc3n(c(=O)c2O)CCOC3(C)C)s1` [Example 24, Pyrimido[2,1-c][1,4]oxazine-2-carboxamide, N-[(2,4-dimethyl-5-thiazolyl)methyl]-4,6,7,9-tetrahydro-3-hydroxy-9,9-dimethyl-4-oxo-]: the IC50 was in the range of 2 to 100 nM.

Regarding “Pyrimido[2,1-c][1,4]oxazine-2- carboxamide, 4,6,7,9-tetrahydro-3- hydroxy-N-[[3-(4-methoxyphenyl)- 5-isoxazolyl]methyl]-9,9-dimethyl- 4-oxo- [Example 48]”, the IC50 was at least 1000 nM.

On to “Pyrimido[2,1-c][1,4]oxazine-2- carboxamide, N-[(5,6-dichloro- 1H-benzimidazol-2-yl)methyl]- 4,6,7,9-tetrahydro-3-hydroxy-9,9- dimethyl-4-oxo- [Example 50]”, for which the half-inhibitory concentration (IC50) is at least 1000 nM.

In the case of `Cc1ccc(CNC(=O)c2nc3n(c(=O)c2O)CCCC32CCC2)s1` [Example 84, 3′Hhydroxy-N-((5-methyl-2-thienyl)methyl)-4′-oxo-7′,8′-dihydro-4′H,6′H-spiro[cyclobutane-1,9′-pyrido[1,2-a]pyrimidine]-2′-carboxamide], the IC50 fell in the range of 2 to 100 nM.

Turning to `CC1(C)OCCn2c1nc(C(=O)NCc1ccc(S(C)(=O)=O)o1)c(O)c2=O` [Example 88, 3-Hydroxy-9,9-dimethyl-N-((5-(methylsulfonyl)furan-2-yl)methyl)-4-oxo-4,6,7,9-tetrahydropyrimido[2,1-c][1,4]oxazine-2-carboxamide], the half-maximal inhibitory concentration (IC50) was 100 to 1000 nM.

For the molecule `CSc1ccc(CNC(=O)c2nc3n(c(=O)c2O)CCOC3(C)C)o1` [Example 87, 3-Hydroxy-9,9-dimethyl-N-((5-(methylthio)furan-2-yl)methyl)-4-oxo-4,6,7,9-tetrahydropyrimido[2,1-c][1,4]oxazine-2-carboxamide], the IC50 lay within 2 to 100 nM.

In the case of `CCCn1ccc(CNC(=O)c2nc3n(c(=O)c2O)CCOC3(C)C)n1` [Example 93, 3-Hydroxy-9,9-dimethyl-4-oxo-N-((1-propyl-1H-pyrazol-3-yl)methyl)-4,6,7,9-tetrahydropyrimido[2,1-c][1,4]oxazine-2-carboxamide], the IC50 lay in the range of 100 to 1000 nM.

Regarding `CC1(C)OCCn2c1nc(C(=O)NCc1ccsc1)c(O)c2=O` [Example 36, Pyrimido[2,1-c][1,4]oxazine-2-carboxamide, 4,6,7,9-tetrahydro-3-hydroxy-9,9-dimethyl-4-oxo-N-(3-thienylmethyl)-], the 50% inhibitory concentration (IC50) lay in the range of 2 to 100 nM.

For `Cc1ccc(CNC(=O)c2nc3n(c(=O)c2O)CCOC3(C)C)o1` [Example 37, Pyrimido[2,1-c][1,4]oxazine-2-carboxamide, 4,6,7,9-tetrahydro-3-hydroxy-9,9-dimethyl-N-[(5-methyl-2-furanyl)methyl]-4-oxo-], the half-maximal inhibitory concentration (IC50) was 2 to 100 nM.

Consider `Cc1ccc(CNC(=O)c2nc3n(c(=O)c2O)CCCC32CCC2)o1` [Example 82, 3′-Hydroxy-N-((5-methyl-2-furyl)methyl)-4′-oxo-7′,8′-dihydro-4′H,6′H-spiro[cyclobutane-1,9′-pyrido[1,2-a]pyrimidine]-2′-carboxamide], for which the concentration for half-maximal inhibition (IC50) was in the range of 2 to 100 nM.

As to `Cc1nn(C)c(C)c1CNC(=O)c1nc2n(c(=O)c1O)CCOC2(C)C` [Example 39, Pyrimido[2,1-c][1,4]oxazine-2-carboxamide, 4,6,7,9-tetrahydro-3-hydroxy-9,9-dimethyl-4-oxo-N-[(1,3,5-trimethyl-1H-pyrazol-4-yl)methyl]-], the IC50 lay within 100 to 1000 nM.

Regarding “Pyrimido[2,1-c][1,4]oxazine-2- carboxamide, 4,6,7,9-tetrahydro-3- hydroxy-9,9-dimethyl-N-[(5- methyl-3-phenyl-4- isoxazolyl)methy]-4-oxo- [Example 43]”, the half-inhibitory concentration (IC50) is at least 1000 nM.

As to `CCn1cc(CNC(=O)c2nc3n(c(=O)c2O)CCOC3(C)C)cn1` [Example 65, Pyrimido[2,1-c][1,4]oxazine-2-carboxamide, N-[(1-ethyl-1H-pyrazol-4-yl)methyl]-4,6,7,9-tetrahydro-3-hydroxy-9,9-dimethyl-4-oxo-], the IC50 is 100 to 1000 nM.

Turning to “Pyrimido[2,1-c][1,4]oxazine-2- carboxamide, N-[[3-(4- chlorophenyl)-5- isoxazolyl]methyl]-4,6,7,9- tetrahydro-3-hydroxy-9,9- dimethyl-4-oxo- [Example 45]”, the IC50 was at least 1000 nM.

As for “Pyrimido[2,1-c][1,4]oxazine-2- carboxamide, 4,6,7,9-tetrahydro-3- hydroxy-N-[3-(5-methoxy-1H- indol-3-yl)propyl]-9,9-dimethyl-4- oxo- [Example 52]”, the IC50 is at least 1000 nM.

Take `CNC(=O)c1ccc(CNC(=O)c2nc3n(c(=O)c2O)CCOC3(C)C)o1` [Example 16, 3-Hydroxy-9,9-dimethyl-N-((5-(methylcarbamoyl)-2-furyl)methyl)-4-oxo-4,6,7,9-tetrahydropyrimido[2,1-c][1,4]oxazine-2-carboxamider]: the IC50 was in the range of 100 to 1000 nM.

As to `CC(=O)n1nc(CNC(=O)c2nc3n(c(=O)c2O)CCOC3(C)C)c2ccccc21` [Example 81, N-((1-Acetyl-1H-indazol-3-yl)methyl)-3-hydroxy-9,9-dimethyl-4-oxo-4,6,7,9-tetrahydropyrimido[2,1-c][1,4]oxazine-2-carboxamide], the half-maximal inhibitory concentration (IC50) lay in the range of 2 to 100 nM.

For `CC1(C)OCCn2c1nc(C(=O)NCc1cc3ccccc3s1)c(O)c2=O` [Example 1, Pyrimido[2,1-c][1,4]oxazine-2-carboxamide, N-(benzo[b]thien-2-ylmethyl)-4,6,7,9-tetrahydro-3-hydroxy-9,9-dimethyl-4-oxo-], the half-maximal inhibitory concentration (IC50) is 2 to 100 nM.

Turning to “Pyrimido[2,1-c][1,4]oxazine-2- carboxamide, N-[(1-ethyl-1H- pyrazol-5-yl)methyl]-4,6,7,9- tetrahydro-3-hydroxy-9,9- dimethyl-4-oxo- [Example 68]”, the IC50 is at least 1000 nM.

Consider `Cc1cc(CNC(=O)c2nc3n(c(=O)c2O)CCOC3(C)C)sc1C` [Example 31, N-((4,5-dimethyl-2-thienyl)methyl)-3-hydroxy-9,9-dimethyl-4-oxo-4,6,7,9-tetrahydropyrimido[2,1-c][1,4]oxazine-2-carboxamide], for which the IC50 was 2 to 100 nM.

Turning to `CNC(=O)c1ccoc1CNC(=O)c1nc2n(c(=O)c1O)CCOC2(C)C` [Example 12, Pyrimido[2,1-c][1,4]oxazine-2-carboxamide, 4,6,7,9-tetrahydro-3-hydroxy-9,9-dimethyl-N-[[3-[(methylamino)carbonyl]-2-furanyl]methyl]-4-oxo-], the IC50 fell in the range of 2 to 100 nM.

Turning to `Cn1c(CNC(=O)c2nc3n(c(=O)c2O)CCOC3(C)C)cc2ccccc21` [Example 11, Pyrimido[2,1-c][1,4]oxazine-2-carboxamide, 4,6,7,9-tetrahydro-3-hydroxy-9,9-dimethyl-N-[(1-methyl-1H-indol-2-yl)methyl]-4-oxo-], the half-inhibitory concentration (IC50) is 2 to 100 nM.

In the case of “Pyrimido[2,1-c][1,4]oxazine-2- carboxamide, 4,6,7,9-tetrahydro-3- hydroxy-N-[2-(1H-indol-3- yl)ethyl]-9,9-dimethyl-4-oxo- [Example 57]”, the 50% inhibitory concentration (IC50) was in the range of 100 to 1000 nM.

On to `Cc1cc(C#N)c(CNC(=O)c2nc3n(c(=O)c2O)CCOC3(C)C)s1` [Example 34, Pyrimido[2,1-c][1,4]oxazine-2-carboxamide, N-[(3-cyano-5-methyl-2-thienyl)methyl]-4,6,7,9-tetrahydro-3-hydroxy-9,9-dimethyl-4-oxo-], for which the concentration for half-maximal inhibition (IC50) lay within 2 to 100 nM.

On to `CC1(C)OCCn2c1nc(C(=O)NCc1cc(-c3ccccc3)no1)c(O)c2=O` [Example 89, 3-Hydroxy-9,9-dimethyl-4-oxo-N-((3-phenyl-5-isoxazolyl)methyl)-4,6,7,9-tetrahydropyrimido[2,1-c][1,4]oxazine-2-carboxamide], for which the half-maximal inhibitory concentration (IC50) was at least 1000 nM.

On to `CC1(C)OCCn2c1nc(C(=O)NCc1nc3ccccc3s1)c(O)c2=O` [Example 92, N-(1,3-Benzothiazol-2-ylmethyl)-3-hydroxy-9,9-dimethyl-4-oxo-4,6,7,9-tetrahydropyrimido[2,1-c][1,4]oxazine-2-carboxamide], for which the IC50 lay in the range of 2 to 100 nM.

Consider `Cc1cc(CNC(=O)c2nc3n(c(=O)c2O)CCOC3(C)C)cs1` [Example 32, Pyrimido[2,1-c][1,4]oxazine-2-carboxamide, 4,6,7,9-tetrahydro-3-hydroxy-9,9-dimethyl-N-[(5-methyl-3-thienyl)methyl]-4-oxo-], for which the 50% inhibitory concentration (IC50) was in the range of 2 to 100 nM.

Values taken from patent US7893055B2, “HIV integrase inhibitors” (priority 2006, dated 2011).
